SMILES strings stand for the structures. Marks after values point to notes of the source that are not given here.

The results in this text go back to patent publication US20220096449A1, “METHOD OF TREATMENT WITH TRADIPITANT” (Vanda Pharmaceuticals Inc., priority 2018, published 2022).

For the experiment, the system named is apomorphine-induced emesis. Description: Apomorphine emetic challenge in beagle dogs. Type of experiment: in vivo, beagle dog. The conditions noted are these: 3.0 mg/kg oral, apomorphine 0.1 mg/kg iv 2 hours later, 5 dogs. How it is done:
Over the five (5) weeks of the study, each animal receives each of the treatments, but only one per week. The purpose of this study is to determine if tradipitant suppresses apomorphine-induced emesis.
All animals are dosed over a period of five (5) weeks, with each dog receiving one of five different treatments on each day of dosing.
All dogs are fasted overnight prior to each treatment day and then fed approximately one (1) hour after oral dosing (approximately one (1) hour prior to administration of apomorphine). Individual doses are adjusted weekly for changes in body weight.
The dose regimen consists of a 5×5 Latin square design, in which each subject receives 1 dose or dose combination per week (6 day washout) as shown in Table 3 below.

In the case of `C[C@@H](O[C@H]1OCCN(Cc2n[nH]c(=O)[nH]2)[C@H]1c1ccc(F)cc1)c1cc(C(F)(F)F)cc(C(F)(F)F)c1` [Aprepitant, reference compound], the “Total No. Emetic Episodes” value was 1**.
